Patent publication US20040253266A1, “Biological compositions and methods for treatment of esophageal cancer” (priority 2003, published 2004)

Experiments:
esophageal cancer [1] = experiment: Wistar rat model of human esophageal cancer (MBNA-induced), tumor growth; assay type: in vivo, Wistar rats; settings: 31st day, after 30 days treatment; AY/NY 1.5 ml per day oral, VDS 3.0 mg/kg i.v. once a week
Procedure: (§1) The oral composition comprising 10^8 cells per ml of activated and conditioned yeast cells of the strain Saccharomyces cerevisiae Hansen strain AS2.375 was prepared by the methods described in Section 5.1 and subsections therein.
The four experimental groups were triplicated (i.e., using a total of 120 rats in the experimental groups).

esophageal cancer [2] = experiment: Wistar rat model of esophageal cancer, survival over 6 months; assay type: in vivo, Wistar rats; settings: for Number of live animals remaining in the groups after 30 days of treatment: 30 rats per group
Procedure: The following example illustrates the benefit of a biological composition of the invention in a Wistar rat model of original position engrafted human esophageal cancer. The survival time of rats after tumor injection and treatment was studied.
as §1
The animals were prepared in a similar manner as described in Section 6.1.
The rats that were fed with MBNA for 30 days were divided into 4 experimental groups of ten rats per group and one control group. The four experimental groups were triplicated (i.e., using a total of 120 rats in the experimental groups). In group 2AY, the rats received 1.5 ml of the biological composition in two doses per day. In group 2NY, the rats received 1.5 ml of the untreated yeast cells in two doses per day. […] In group 2CK1, the rats received 1.5 ml of physiological saline in two doses per day.
The rats received the biological compositions, untreated yeast cells, VDS or saline on the same day as the tumor cells were transplanted. The rats in group 2CK2 also started receiving saline on the same day as the other four groups. […] The rats were observed over 6 months from the day of tumor inoculation and survival was recorded. The weight of the rats, the weight of the esophagus, and the weight of the tumor were determined by standard techniques.

[3] = system: esophageal tumor SGA-73 cells; experiment: TA1 mouse model of human esophageal cancer (SGA-73 cells s.c.), tumor growth; assay type: in vivo, TA1 mice; settings: 31st day, after 30 days treatment; AY/NY 0.3 ml per day oral, CTX 30 mg/kg per day s.c.
Procedure: as §1
The mice injected with tumor cells were kept for 3 days and then divided into 4 experimental groups of ten mice per group and one control group. The four experimental groups were triplicated (i.e., using a total of 120 mice in the experimental groups).
(§2) The mice received the biological compositions, untreated yeast cells, CTX or saline on the same day as the tumor cells were transplanted. The mice in group CK2 also started receiving saline on the same day as the other four groups. The biological compositions, untreated yeast cells and saline were administered orally by a feeding tube and the CTX by subcutaneous injection for 30 consecutive days.

[4] = system: esophageal tumor SGA-73 cells; experiment: TA1 mouse model of human esophageal cancer (SGA-73 cells), survival over 6 months; assay type: in vivo, TA1 mice; settings: for Number of live animals remaining in the groups after 30 days of treatment: 30 mice per group
Procedure: The survival time of mice after tumor injection and treatment was studied.
as §1
The animals were prepared in a similar manner as described in Section 8.1.
The mice injected with tumor cells were kept for 3 days and then divided into 4 experimental groups of ten mice per group and one control group. The four experimental groups were triplicated (i.e., using a total of 120 mice in the experimental groups). In group 2AY, the mice received 0.5 ml of the biological composition once per day. In group 2NY, the mice received 0.5 ml of the untreated yeast cells once per day. In group 2CTX, the mice were injected subcutaneously with 45 mg of cyclophosphamide (CTX) per kg body weight per day. In group 2CK1, the mice received 0.5 ml of physiological saline once per day.
as §2, with “2CK2” for “CK2”, “days. The mice were observed over 6 months from the day of tumor inoculation and survival was recorded. The weight of the mice and the weight of the tumor were determined by standard techniques.” for “days.”

[5] = 0 month after cessation of treatment
[6] = 1 month after cessation of treatment
[7] = 2 months after cessation of treatment
[8] = 3 months after cessation of treatment
[9] = 4 months after cessation of treatment
[10] = 5 months after cessation of treatment
[11] = 6 months after cessation of treatment
[12] = rats that survived the 6 month observation
[13] = mice that survived the 6 month observation

CC[C@]1(O)C[C@@H]2CN(CCc3c([nH]c4ccccc34)[C@@](C(=O)OC)(c3cc4c(cc3OC)N(C)[C@H]3[C@@](O)(C(N)=O)[C@H](O)[C@]5(CC)C=CCN6CC[C@]43[C@@H]65)C2)C1 [VDS, vindesine]
mean weight of rats and standard deviation (esophageal cancer [1]): 173 ± 15 g | mean weight of tumor nodules and standard deviation (esophageal cancer [1]): 281 ± 31 mg | Number of live animals remaining in the groups after 30 days of treatment (esophageal cancer [2]; [5]): 30 | Number of live animals remaining in the groups after 30 days of treatment (esophageal cancer [2]; [6]): 30 | survival time of rats (esophageal cancer [2]; 2AY/2NY 1.5 ml per day oral, 2VDS 3.0 mg/kg per week for four weeks): all died after five months | Number of live animals remaining in the groups after 30 days of treatment (esophageal cancer [2]; [7]): 30 | Number of live animals remaining in the groups after 30 days of treatment (esophageal cancer [2]; [8]): 30 | Number of live animals remaining in the groups after 30 days of treatment (esophageal cancer [2]; [9]): 21 | Number of live animals remaining in the groups after 30 days of treatment (esophageal cancer [2]; [10]): 3 | Number of live animals remaining in the groups after 30 days of treatment (esophageal cancer [2]; [11]): 0 | mean weight of esophagus and standard deviation (esophageal cancer [2]; [12]): all animals dead | mean weight of rats and standard deviation (esophageal cancer [2]; [12]): all animals dead | mean weight of tumor nodules and standard deviation (esophageal cancer [2]; [12]): all animals dead

O=P1(N(CCCl)CCCl)NCCCO1 (stereo not shown) [CTX, cyclophosphamide]
mean weight of mice and standard deviation [3]: 18.2 ± 2.8 g | mean weight of tumor nodules and standard deviation [3]: 384 ± 31 mg | Number of live animals remaining in the groups after 30 days of treatment [4, 5]: 30 | Number of live animals remaining in the groups after 30 days of treatment [4, 6]: 30 | survival time of mice ([4]; 2AY/2NY 0.5 ml per day oral, 2CTX 45 mg/kg per day s.c.): all died after four months | Number of live animals remaining in the groups after 30 days of treatment [4, 7]: 28 | Number of live animals remaining in the groups after 30 days of treatment [4, 8]: 22 | Number of live animals remaining in the groups after 30 days of treatment [4, 9]: 18 | Number of live animals remaining in the groups after 30 days of treatment [4, 10]: 0 | Number of live animals remaining in the groups after 30 days of treatment [4, 11]: 0 | mean weight of mice and standard deviation [4, 13]: all animals dead | mean weight of tumor nodules and standard deviation [4, 13]: all animals dead
